Measured values taken from paper PMC10650850, “Discovery, Structure–Activity Relationship and In Vitro Anticancer Activity of Small-Molecule Inhibitors of the Protein–Protein Interactions between AF9/ENL and AF4 or DOT1L” (Cancers, 2023).
Structures can show the parent of a compound that is named as a salt.

Target: T1, AF9-DOT1L interaction (Homo sapiens, UniProt P42568)
T1 construct: human AF9 AHD domain (475–568); made in house; host or cells: E. coli BL21(DE3)
T1 sequence (P42568 475-568): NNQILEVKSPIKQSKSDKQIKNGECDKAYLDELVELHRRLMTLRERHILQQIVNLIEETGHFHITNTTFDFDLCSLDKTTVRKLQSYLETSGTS
Test: AlphaLisa assay, AF9-DOT1L interaction
Assay type: binding
Settings: compound at 5 μM, read-out: % Inhibition at 5 μM against the AF9-DOT1L interaction
Source text: An AlphaLisa assay we previously developed was used for compound screening for inhibitors of the AF9-DOT1L interaction. The PPI takes the DOT1L-peptide coated donor beads and AF9 AHD coated acceptor beads together. The donor beads are illuminated with a laser beam (680 nm) to generate singlet oxygen radicals, which activate the adjacent acceptor beads to produce luminescence at 615 nm. When a compound can disrupt such PPI and separate the donor and acceptor beads, the highly unstable radicals are rapidly quenched by water without generating luminescence.
The cDNA for the human AF9 AHD domain (475–568) and ENL AHD domain (489–559) was synthesized (by Genscript, Piscataway, NJ, USA) and inserted into the pMAL c5X expression plasmid. The DOT1L peptide (Biotin-AHX-[…]) and AF4 peptide (Biotin-AHX-[…]) for the Alpha assay were purchased from Genscript.
Alpha assays were developed in our previous publication, using a Perkin-Elmer AlphaLisa anti-MBP kit, which contains streptavidin donor beads and anti-MBP acceptor beads. Briefly, the assay was performed using a MBP-protein (5 nM), a biotinylated peptide (40 nM), and increasing concentrations of a compound in 25 µL buffer (PBS with 0.5% BSA, pH 7.5) in 384-well plates according to the manufacturer’s protocol and measured with a Tecan SPARK microplate reader. Data were imported into Prism (version 5.0), and IC50 values from 3 independent experiments with standard deviation were obtained by using a standard dose-response curve fitting.

| SMILES | inhibition at 5 µM [%] |
| --- | --- |
| O=C(NCC1CCNCC1)c1cc2ccc(-c3ccc(Cl)cc3)cc2s1 [Compound 48, 6-(4-Chlorophenyl)-N-(piperidin-4-ylmethyl)-benzo[b]thiophene-2-carboxamide hydrochloride] | ~50 |
| O=C(NCC1CCNCC1)c1cc2ccc(-c3ccc(F)cc3)cc2s1 [Compound 49, 6-(4-Fluorophenyl)-N-(piperidin-4-ylmethyl)-benzo[b]thiophene-2-carboxamide hydrochloride] | 21 |
| O=C(NCC1CCNCC1)c1cc2cc(-c3ccc(C(=O)N4CCCCC4)cc3)ccc2s1 [Compound 51, 5-(4-(Piperidine-1-carbonyl)phenyl)-N-(piperidin-4-ylmethyl)-benzo[b]thiophene-2-carboxamide hydrochloride] | 31 |
| O=C(NCC1CCNCC1)c1cc2cc(-c3ccc(C(=O)N4CCCC4)cc3)ccc2s1 [Compound 52] | 0 |
| N#Cc1ccc(-c2ccc3sc(C(=O)NCC4CCNCC4)cc3c2)cc1 [Compound 53, 5-(4-Cyanophenyl)-N-(piperidin-4-ylmethyl)-benzo[b]thiophene-2-carboxamide hydrochloride] | 23 |
| CC(C)(C)c1ccc(-c2ccc3sc(C(=O)NCC4CCNCC4)cc3c2)cc1 [Compound 54, 5-(4-(Tert-butyl)phenyl)-N-(piperidin-4-ylmethyl)-benzo[b]thiophene-2-carboxamide hydrochloride] | 33 |
| O=C(NCC1CCNCC1)c1cc2cc(Nc3ccc(OC(F)(F)F)cc3)ccc2s1 [Compound 56, 5-((4-(Trifluoromethoxyl)phenyl)amino)-N-(piperidin-4-ylmethyl)-benzo[b]thiophene-2-carboxamide hydrochloride] | 24 |

The remaining lines, values ahead:

| inhibition at 5 µM [%] | SMILES |
| --- | --- |
| 40 | O=C(NCC1CCNCC1)c1cc2ccc(-c3ccc(N4CCOCC4)cc3)cc2o1 [Compound 58, 6-(4-Morpholinophenyl)-N-(piperidin-4-ylmethyl)-benzofuran-2-carboxamide hydrochloride] |
| 38 | O=C(NCC1CCNCC1)c1cc2ccc(-c3ccc(N4CCNCC4)cc3)cc2o1 [Compound 59, 6-(4-(Piperazin-1-yl)phenyl)-N-(piperidin-4-ylmethyl)-benzofuran-2-carboxamide hydrochloride] |
| 32 | CN1CCN(c2ccc(-c3ccc4cc(C(=O)NCC5CCNCC5)oc4c3)cc2)CC1 [Compound 60, 6-(4-(4-Methylpiperazin-1-yl)phenyl)-N-(piperidin-4-ylmethyl)-benzofuran-2-carboxamide hydrochloride] |
| 18 | O=C(NCC1CCNCC1)c1cc2ccc(-c3ccc(C4CCCCC4)cc3)cc2o1 [Compound 61, 6-(4-Cyclohexylphenyl)-N-(piperidin-4-ylmethyl)-benzofuran-2-carboxamide hydrochloride] |
| 30 | CCN(CC)c1ccc(-c2ccc3cc(C(=O)NCC4CCNCC4)oc3c2)cc1 [Compound 62, 6-(4-(Diethylamino)phenyl)-N-(piperidin-4-ylmethyl)-benzofuran-2-carboxamide hydrochloride] |
| 1 | O=C(NCC1CCNCC1)c1cc2ccc(-c3ccc(C(=O)N4CCCC4)cc3)cc2o1 [Compound 63, 6-(4-((Pyrrolidine-1-yl)carbonyl)phenyl)-N-(piperidin-4-ylmethyl)-benzofuran-2-carboxamide hydrochloride] |
| 0 | O=C(NCC1CCNCC1)c1cc2ccc(-c3ccc(C(=O)N4CCCCC4)cc3)cc2o1 [Compound 64, 6-(4-((Piperidine-1-yl)carbonyl)phenyl)-N-(piperidin-4-ylmethyl)-benzofuran-2-carboxamide hydrochloride] |
| 0 | O=C(NCC1CCNCC1)c1cc2ccc(-c3ccc(C(=O)N4CCCCCC4)cc3)cc2o1 [Compound 65, 6-(4-((Azepane-1-yl)carbonyl)phenyl)-N-(piperidin-4-ylmethyl)-benzofuran-2-carboxamide hydrochloride] |
